This note sets out measurements from article PMC6934184, “Selective DNA-PKcs inhibition extends the therapeutic index of localized radiotherapy and chemotherapy” (The Journal of Clinical Investigation, 2019).

Structures are written as SMILES.

The assay addresses T1, TEC (Homo sapiens, UniProt P42680).
T1 construct: purchased Thermo Fisher Scientific (Life Technologies) SelectScreen
Kind of assay: SelectScreen LanthaScreen. Particulars: read-out: % displacement. It is filed as binding. The gist of the method:
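NU5455 was profiled across the SelectScreen Broad panel of kinase activity and binding assays. Z'LYTE reactions such as CSF1R ran at apparent Km ATP, while the Adapta CAMK1 assay used ATP listed as 10. Values are given as percent.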

T1 sequence (P42680 whole entry): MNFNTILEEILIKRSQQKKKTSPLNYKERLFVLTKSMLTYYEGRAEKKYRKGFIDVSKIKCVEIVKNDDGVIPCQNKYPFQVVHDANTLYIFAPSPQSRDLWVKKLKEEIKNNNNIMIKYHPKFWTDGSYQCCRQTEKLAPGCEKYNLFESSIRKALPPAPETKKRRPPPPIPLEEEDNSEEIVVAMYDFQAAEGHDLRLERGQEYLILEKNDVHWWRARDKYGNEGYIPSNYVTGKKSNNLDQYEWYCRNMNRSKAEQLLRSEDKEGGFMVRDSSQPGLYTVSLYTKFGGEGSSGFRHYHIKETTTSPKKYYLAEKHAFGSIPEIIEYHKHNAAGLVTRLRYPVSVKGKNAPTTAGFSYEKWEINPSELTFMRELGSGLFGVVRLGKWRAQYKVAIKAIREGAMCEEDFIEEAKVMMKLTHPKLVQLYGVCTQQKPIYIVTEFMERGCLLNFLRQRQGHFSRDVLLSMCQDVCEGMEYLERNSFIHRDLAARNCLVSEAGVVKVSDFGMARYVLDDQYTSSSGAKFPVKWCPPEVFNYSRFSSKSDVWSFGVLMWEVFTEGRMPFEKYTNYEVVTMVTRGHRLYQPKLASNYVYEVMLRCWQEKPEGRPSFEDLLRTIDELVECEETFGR

As to `CN(C(=O)CN1CCOCC1)c1ccc2sc3c(-c4cccc5c(=O)cc(N6CC7CCC(C6)O7)oc45)cccc3c2c1` [NU5455], the inhibition at 1 µM is 8.1%.
